Results taken from US4863935A, “Mitomycin compounds having useful anti-tumor activity” (priority 1986, dated 1989).

Columns and labels:
[1] = LD50 acute toxicity, ddy mice, single abdominal injection; conditions: mouse, in vivo, ip, 5 ddy mice, 14 days observation, Behrens-Koerber's method
Source text: (§1) As used herein, the term "LD50 " denotes the acute toxicity. The term "ED50 " denotes the administered amount needed for reducing the volume of Sarcoma 180 solid tumours in animals to 50% of the corresponding tumour volume in control (untreated) animals. The term "WBC4000 " denotes the minimum dose of the drug needed to reduce the number of peripheral leucocytes to 4000/mm^3. A greater TI value results in a broader tolerance to the drug, which is advantageous for higher anti-tumour activity and decreased toxicity. The term "T" used herein denotes the average survival days of the test animals administered with the test compound. The term "C" denotes the average survival days of the control (untreated) animals. The term "OPD" denotes the dose of the drug resulting in the highest survival ratio. The term "ILS30 " denotes a 30% increase of life-span.
LD50, ED50 and WBC4000 were respectively determined as follows:
Each animal of the test group, consisting of 5 ddy mice, was administered once with a test compound by abdominal injection. […] To determine the LD50 value, Behrens-Koerber's method was applied.

Sarcoma 180 solid tumour = experiment: ED50 against Sarcoma 180 solid tumour implanted in mice; assay type: in vivo, male mouse (ddy strain); conditions: for (CI)c: (CI of test compound)/(CI of mitomycin C), CI = LD50/ED50; for ED50: Mus musculus, Sarcoma-180, iv, 168 h, i.v. (tail vein) 24 h after implantation, tumour volume at 7 days, dose for T/C of 0.5
Source text: With regard to the so-called chemotherapeutic index viz. the CI value against sarcoma 180 solid tumour, expressed by the formula: […]
as §1
the term (CI)c denotes (CI of the test compound)/(CI of mitomycin C), and
5×10^6 sarcoma 180 solid tumor cells were abdominally implanted into ddy mice. 7 days after this, ascites cells were sampled. The cells were washed once with a sterilized physiological saline and were used to prepare a cell suspension containing 5×10^7 cells per ml of a sterilized physiological saline. On each occasion, 0.1 ml of the cell suspension was subcutaneously implanted under the skin of the right armpit of a male mouse (ddy strain; body weight 20±2 g). The test compound which was dissolved in a physiological saline with or without addition of Tween 80 was injected into the tail vein of each animal of a group consisting of 5 mice at a dose of 0.1-0.2 ml 24 hours after the implantation of the tumor cells.
The anti-tumor activity was determined in the following manner:
7 days after the implantation, the major axis (a) and the minor axis (b) of the tumour were measured to calculate a value of (a×b^2)/2 which corresponds to the volume of the tumour. The antitumour activity was expressed by the ratio of the volume of the tumour (T) of the group of animals administered with the test compound to the corresponding volume of tumours (C) of the untreated animals.
On graph paper, T/C was plotted on the ordinate using an arithmetic scale and the administered amount of test compound was plotted on the abscissa using a logarithmic scale. The relationship between the dose and T/C was shown by a straight line determined by the method of least squares, from which ED50 viz. a dose corresponding to T/C of 0.5 was obtained.

[2] = tested on: lymphocytic Leukemia P-388; experiment: Anti-tumour activity against lymphocytic Leukemia P-388 in mice; assay type: in vivo, mouse, female of CDF strain; conditions: for (ILSmax)c: (ILSmax of test compound)/(ILSmax of mitomycin C), ILS=(T-C)/C×100; for (TI)c: (TI of test compound)/(TI of mitomycin C), TI = OPD/dose which results in ILS30; for ED (optimal dose, highest survival) / ED (30% increase of life-span): Mus musculus, P388, ip, i.p. 24 h after implantation; for ED (optimal dose, highest survival): dose resulting in the highest survival ratio, 30 days, read-out: OPD; for ED (30% increase of life-span): read-out: Dose needed to give ILS30
Source text: Also, their therapeutic indexes, expressed by the formula:
TI=(OPD)/(dose which results in ILS30),
against lymphocytic Leukemia P-388 and the maximum increased life spans (ILSmax), defined by the formula: […]
as §1
The experiment was carried out in the following manner. 1×10^6 lymphocytic Leukemia P-388 tumour cells were abdominally implanted into each mouse of a group consisting of 5 mice (body weight about 22 g; female of CDF strain). 24 hours after implantation, a physiological saline solution (0.2 ml) containing the test compound with or without addition of Tween 80 was abdominally given to the test animal.
Table 7 indicates anti-tumour activities of selected Compounds (I) against lyphocytic Leukemia P-388.

tumour = conditions: background statement; cited from earlier work
bone marrow = conditions: background statement; cited from earlier work

Row | Structure (SMILES) | LD50 at 336 h [1] [mg/kg] | (CI)c (Sarcoma 180 solid tumour) | ED50 (Sarcoma 180 solid tumour) [mg/kg] | (ILSmax)c [2] | (TI)c [2] | ED (optimal dose, highest survival) [2] [mg/kg] | ED (30% increase of life-span) [2] [mg/kg] | anti-tumour activity (tumour) | toxicity to bone marrow (bone marrow)
1 | CCCNC(=O)SCCNC1=C(C)C(=O)C2=C(C1=O)[C@@H](COC(N)=O)[C@@]1(OC)[C@H]3N[C@H]3CN21 [Compound 27, 7-N--(2-n-propylaminocarbonylthioethyl)mitomycin C] | 37.5 | 1.33 | 11.1 | 1.84 | 3.11 | 25 | 0.67 | – | –
2 | CO[C@@]12[C@H](COC(N)=O)C3=C(C(=O)C(C)=C(NCCSC(=O)NC4CCCCC4)C3=O)N1C[C@@H]1N[C@@H]12 [Compound 29, 7-N--(2-cyclohexylaminocarbonylthioethyl)mitomycin C] | 43.8 | 1.43 | 12 | 1.69 | 2.45 | 25 | 0.85 | – | –
3 | CCC(C)NC(=O)SCCNC1=C(C)C(=O)C2=C(C1=O)[C@@H](COC(N)=O)[C@@]1(OC)[C@H]3N[C@H]3CN21 (stereo partly shown) [Compound 30, 7-N--(2-sec-butylaminocarbonylthioethyl)mitomycin C] | 37.5 | 1.53 | 9.6 | 1.60 | 3.20 | 25 | 0.65 | – | –
4 | COC(=O)[C@H]1CCCN1C(=O)SCCNC1=C(C)C(=O)C2=C(C1=O)[C@@H](COC(N)=O)[C@@]1(OC)[C@H]3N[C@H]3CN21 [Compound 32, 7-N--[2-((S)--2-methoxycarbonylpyrrolidino)carbonylthioethyl]mitomycin C] | 67.5 | 1.48 | 17.9 | 1.40 | 2.14 | 37.5 | 1.67 | – | –
5 | CCNC(=S)SCCNC1=C(C)C(=O)C2=C(C1=O)[C@@H](COC(N)=O)[C@@]1(OC)[C@H]3N[C@H]3CN21 [Compound 39, 7-N--(2-ethylaminothiocarbonylthioethyl)mitomycin C] | 45 | 2.40 | 7.8 | > 1.60 | 2.74 | 25 | 0.57 | – | –
6 | CO[C@@]12[C@H](COC(N)=O)C3=C(C(=O)C(C)=C(N)C3=O)N1C[C@@H]1N[C@@H]12 [mitomycin C] | – | – | – | – | – | – | – | strong anti-tumour activity | strong toxicity to bone marrow
